# Reference: ChEMBL document CHEMBL1201862, “PubChem BioAssay data set” (2004)
# The source made the active and inactive calls.
# Assays:
# Beta-galactosidase = Beta-galactosidase (Escherichia coli, UniProt Q8VNN2); test: PubChem AID 485352; format: functional
# [1] = molecular target: T1, Type-1 angiotensin II receptor (Homo sapiens, UniProt P30556); test: AT1 receptor antagonists, dose response, selectivity assay for APJ receptor antagonist project, cell-based, uHTS hits (AID 463214); format: functional;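 further: antagonist potency against angiotensin II stimulated AT1 response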
# T1 sequence (P30556 whole entry): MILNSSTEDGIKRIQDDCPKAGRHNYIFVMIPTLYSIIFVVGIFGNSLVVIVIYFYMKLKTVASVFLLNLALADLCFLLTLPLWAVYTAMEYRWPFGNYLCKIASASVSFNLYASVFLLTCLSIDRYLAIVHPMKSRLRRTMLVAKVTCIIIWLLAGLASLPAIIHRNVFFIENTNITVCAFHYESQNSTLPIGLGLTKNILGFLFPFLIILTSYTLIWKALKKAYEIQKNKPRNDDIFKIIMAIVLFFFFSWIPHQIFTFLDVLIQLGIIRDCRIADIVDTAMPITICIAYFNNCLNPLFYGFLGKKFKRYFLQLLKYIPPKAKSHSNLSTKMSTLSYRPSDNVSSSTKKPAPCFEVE
# Estrogen receptor beta = Estrogen receptor beta (Homo sapiens, UniProt Q92731); test: ERβ–SRC-3 coactivator interaction inhibitors, confirmation, orthogonal assay, biochemical, ELISA, streptavidin-HRP readout (AID 1060)
# Chain of Estrogen receptor beta (Q92731 whole entry): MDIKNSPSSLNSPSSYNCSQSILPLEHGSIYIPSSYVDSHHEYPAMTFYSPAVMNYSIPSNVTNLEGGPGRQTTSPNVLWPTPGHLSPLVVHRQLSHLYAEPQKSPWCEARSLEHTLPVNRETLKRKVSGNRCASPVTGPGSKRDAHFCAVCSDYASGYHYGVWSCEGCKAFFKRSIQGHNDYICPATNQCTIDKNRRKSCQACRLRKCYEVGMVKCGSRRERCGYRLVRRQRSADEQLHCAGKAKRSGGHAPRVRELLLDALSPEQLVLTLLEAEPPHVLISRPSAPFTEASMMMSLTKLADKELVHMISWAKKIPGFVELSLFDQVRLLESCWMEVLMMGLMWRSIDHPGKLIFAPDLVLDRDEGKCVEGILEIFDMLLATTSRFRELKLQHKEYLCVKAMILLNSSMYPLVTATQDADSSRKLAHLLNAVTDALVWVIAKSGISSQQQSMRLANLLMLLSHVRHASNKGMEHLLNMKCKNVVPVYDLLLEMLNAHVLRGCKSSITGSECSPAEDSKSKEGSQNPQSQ
# [2] = molecular target: T2, Polyadenylate-binding protein 1 (Homo sapiens, UniProt P11940); test: PABP1 MLLE–PAM2 binding inhibitor potency, dose response, biochemical, fluorescence polarization, FITC-PAM2 peptide (AID 602259); format: functional; settings: read-out: IC50_Mean
# T2 sequence (P11940 whole entry): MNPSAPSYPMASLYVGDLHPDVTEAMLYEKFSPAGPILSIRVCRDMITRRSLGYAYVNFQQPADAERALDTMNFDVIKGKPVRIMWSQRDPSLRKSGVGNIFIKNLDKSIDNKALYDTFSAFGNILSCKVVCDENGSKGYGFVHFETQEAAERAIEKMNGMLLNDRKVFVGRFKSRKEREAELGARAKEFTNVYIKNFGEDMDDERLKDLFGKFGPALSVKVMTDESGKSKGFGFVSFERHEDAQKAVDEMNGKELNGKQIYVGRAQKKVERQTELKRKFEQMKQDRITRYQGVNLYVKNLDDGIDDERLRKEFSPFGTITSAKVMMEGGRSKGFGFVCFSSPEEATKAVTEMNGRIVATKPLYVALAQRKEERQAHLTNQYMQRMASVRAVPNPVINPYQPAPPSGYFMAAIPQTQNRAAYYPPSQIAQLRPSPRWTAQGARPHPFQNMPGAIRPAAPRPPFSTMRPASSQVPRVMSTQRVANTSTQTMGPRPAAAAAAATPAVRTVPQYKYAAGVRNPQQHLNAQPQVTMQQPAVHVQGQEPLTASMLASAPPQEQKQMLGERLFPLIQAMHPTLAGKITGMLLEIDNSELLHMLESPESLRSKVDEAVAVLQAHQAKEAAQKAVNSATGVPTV
# [3] = molecular target: T2, Polyadenylate-binding protein 1; test: PABP1 MLLE–PAM2 interaction inhibitors, dose response, miRNA deadenylation inhibitor project, biochemical, fluorescence polarization, Cy5-PAM2 peptide, secondary (AID 602260); format: functional; settings: read-out: IC50_Mean
# [4] = molecular target: Eukaryotic translation initiation factor 4E (Mus musculus, UniProt P63073); test: eIF4E–eIF4G protein interaction inhibitors, dose response, biochemical, TR-FRET (AID 855); format: functional;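 further: potency for disrupting eIF4E binding to eIF4GI seen as loss of FRET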
# Chain of Eukaryotic translation initiation factor 4E (P63073 whole entry): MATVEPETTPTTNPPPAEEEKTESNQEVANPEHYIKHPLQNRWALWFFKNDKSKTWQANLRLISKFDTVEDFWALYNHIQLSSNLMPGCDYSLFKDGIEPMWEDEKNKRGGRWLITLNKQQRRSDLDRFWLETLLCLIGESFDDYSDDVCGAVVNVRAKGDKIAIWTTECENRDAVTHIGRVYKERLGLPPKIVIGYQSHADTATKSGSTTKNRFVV
# [5] = molecular target: T3, Mannose-6-phosphate isomerase (Homo sapiens, UniProt P34949); test: human PMI inhibitors, high substrate, primary screen, biochemical, fluorescence intensity, high mannose 6-phosphate (AID 1220)
# T3 sequence (P34949 whole entry): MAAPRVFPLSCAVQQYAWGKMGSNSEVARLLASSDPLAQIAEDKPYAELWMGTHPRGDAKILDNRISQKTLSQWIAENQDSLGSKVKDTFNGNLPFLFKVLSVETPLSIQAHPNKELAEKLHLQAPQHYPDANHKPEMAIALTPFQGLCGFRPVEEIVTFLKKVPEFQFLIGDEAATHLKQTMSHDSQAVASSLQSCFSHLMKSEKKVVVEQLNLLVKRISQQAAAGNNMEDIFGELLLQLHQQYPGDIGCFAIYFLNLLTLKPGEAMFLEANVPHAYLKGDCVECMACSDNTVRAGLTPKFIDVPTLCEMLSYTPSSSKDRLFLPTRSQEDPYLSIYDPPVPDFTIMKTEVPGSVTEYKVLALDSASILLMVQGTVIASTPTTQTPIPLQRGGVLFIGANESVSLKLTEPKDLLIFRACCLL
# Nonstructural protein 1 = Nonstructural protein 1 (Influenza A virus, UniProt Q194T2); format: functional, Influenza A virus (A/California/07/2009(H1N1))
# Chain of Nonstructural protein 1 (Q194T2 whole entry): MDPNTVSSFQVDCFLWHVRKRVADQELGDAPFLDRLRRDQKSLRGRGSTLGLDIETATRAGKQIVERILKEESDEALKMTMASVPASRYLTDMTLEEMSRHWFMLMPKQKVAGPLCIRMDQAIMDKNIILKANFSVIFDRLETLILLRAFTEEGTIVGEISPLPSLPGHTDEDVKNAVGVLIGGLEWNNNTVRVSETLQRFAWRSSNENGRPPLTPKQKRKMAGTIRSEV
# [6] = molecular target: T4, Acyl-homoserine lactone acylase PvdQ (Pseudomonas aeruginosa (strain LESB58), UniProt Q9I194); test: P. aeruginosa PvdQ acylase inhibitors, dose response, biochemical, fluorescence, plate reader and imaging, cherry-picks (AID 493231)
# T4 sequence (Q9I194 whole entry): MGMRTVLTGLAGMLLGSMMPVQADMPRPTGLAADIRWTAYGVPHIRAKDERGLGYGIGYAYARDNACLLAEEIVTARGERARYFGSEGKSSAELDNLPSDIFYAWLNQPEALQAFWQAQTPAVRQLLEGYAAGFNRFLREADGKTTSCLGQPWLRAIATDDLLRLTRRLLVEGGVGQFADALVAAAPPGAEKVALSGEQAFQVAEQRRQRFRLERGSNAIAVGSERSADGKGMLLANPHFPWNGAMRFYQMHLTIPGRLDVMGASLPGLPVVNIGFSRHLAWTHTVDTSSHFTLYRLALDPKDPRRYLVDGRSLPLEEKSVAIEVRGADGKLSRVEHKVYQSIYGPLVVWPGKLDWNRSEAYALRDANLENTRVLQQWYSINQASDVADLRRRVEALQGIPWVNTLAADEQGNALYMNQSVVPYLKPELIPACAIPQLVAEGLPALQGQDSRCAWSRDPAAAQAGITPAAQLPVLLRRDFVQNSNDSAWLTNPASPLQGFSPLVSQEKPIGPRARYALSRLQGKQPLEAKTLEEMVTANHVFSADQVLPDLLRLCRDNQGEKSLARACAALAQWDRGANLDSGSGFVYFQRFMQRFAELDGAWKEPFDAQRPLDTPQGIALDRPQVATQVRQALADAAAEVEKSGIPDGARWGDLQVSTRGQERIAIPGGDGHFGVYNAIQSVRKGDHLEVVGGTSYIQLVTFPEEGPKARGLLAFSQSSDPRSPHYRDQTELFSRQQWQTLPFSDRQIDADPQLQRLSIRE
# [7] = molecular target: Glyceraldehyde-3-phosphate dehydrogenase (Homo sapiens, UniProt P04406)
# Chain of Glyceraldehyde-3-phosphate dehydrogenase (P04406 whole entry): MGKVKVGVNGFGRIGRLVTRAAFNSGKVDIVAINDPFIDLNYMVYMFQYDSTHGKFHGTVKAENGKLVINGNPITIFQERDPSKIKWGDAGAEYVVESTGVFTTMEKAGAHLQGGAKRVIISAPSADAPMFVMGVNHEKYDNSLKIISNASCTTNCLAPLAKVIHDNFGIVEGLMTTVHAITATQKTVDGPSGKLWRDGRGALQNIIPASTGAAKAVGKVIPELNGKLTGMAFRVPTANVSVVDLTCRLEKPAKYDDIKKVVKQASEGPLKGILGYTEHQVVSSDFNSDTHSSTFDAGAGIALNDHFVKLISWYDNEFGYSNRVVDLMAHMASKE
# [8] = molecular target: T5, Alkaline phosphatase, tissue-nonspecific isozyme (Homo sapiens, UniProt P05186); test: human TNAP enzyme inhibitors, SAR follow-up, biochemical, luminescent, dose response (AID 1056)
# T5 sequence (P05186 whole entry): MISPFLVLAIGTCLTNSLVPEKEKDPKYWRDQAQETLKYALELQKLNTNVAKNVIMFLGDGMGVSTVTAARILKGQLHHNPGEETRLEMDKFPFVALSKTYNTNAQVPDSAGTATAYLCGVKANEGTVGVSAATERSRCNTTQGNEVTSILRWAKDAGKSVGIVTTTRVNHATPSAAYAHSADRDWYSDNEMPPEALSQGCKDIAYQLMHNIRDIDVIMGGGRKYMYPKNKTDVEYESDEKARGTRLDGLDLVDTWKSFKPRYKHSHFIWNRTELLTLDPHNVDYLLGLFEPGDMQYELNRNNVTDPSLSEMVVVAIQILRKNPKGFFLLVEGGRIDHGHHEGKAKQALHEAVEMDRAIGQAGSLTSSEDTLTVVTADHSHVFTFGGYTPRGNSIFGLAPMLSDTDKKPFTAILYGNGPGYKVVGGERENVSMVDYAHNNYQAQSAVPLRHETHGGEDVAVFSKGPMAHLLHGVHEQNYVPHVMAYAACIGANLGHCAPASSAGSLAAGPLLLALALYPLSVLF
# CAAX prenyl protease 2 [9] = molecular target: T6, CAAX prenyl protease 2 (Homo sapiens, UniProt Q9Y256); test: human Rce1 protease inhibitors, dose response, biochemical, yeast membranes, quenched-peptide fluorescence, cherry-pick (AID 588849)
# T6 sequence (Q9Y256 whole entry): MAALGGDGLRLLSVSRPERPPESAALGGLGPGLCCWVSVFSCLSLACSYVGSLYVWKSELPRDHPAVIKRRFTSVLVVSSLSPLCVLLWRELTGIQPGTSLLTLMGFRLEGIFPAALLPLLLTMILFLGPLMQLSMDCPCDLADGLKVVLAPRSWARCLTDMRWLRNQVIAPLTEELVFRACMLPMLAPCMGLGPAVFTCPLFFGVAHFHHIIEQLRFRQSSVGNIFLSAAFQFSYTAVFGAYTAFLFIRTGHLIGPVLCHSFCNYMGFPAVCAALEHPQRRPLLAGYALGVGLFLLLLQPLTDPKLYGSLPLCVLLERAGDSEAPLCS
# Ion channel NompC = Ion channel NompC (Danio rerio, UniProt Q7T1G6); test: Dose response cell-based high-throughput screening assay for agonists of the transient receptor potential channel N1 (TRPN1). [Related pubchem assays (depositor defined):AID1424, AID1448]; format: functional
# Chain of Ion channel NompC (Q7T1G6 whole entry): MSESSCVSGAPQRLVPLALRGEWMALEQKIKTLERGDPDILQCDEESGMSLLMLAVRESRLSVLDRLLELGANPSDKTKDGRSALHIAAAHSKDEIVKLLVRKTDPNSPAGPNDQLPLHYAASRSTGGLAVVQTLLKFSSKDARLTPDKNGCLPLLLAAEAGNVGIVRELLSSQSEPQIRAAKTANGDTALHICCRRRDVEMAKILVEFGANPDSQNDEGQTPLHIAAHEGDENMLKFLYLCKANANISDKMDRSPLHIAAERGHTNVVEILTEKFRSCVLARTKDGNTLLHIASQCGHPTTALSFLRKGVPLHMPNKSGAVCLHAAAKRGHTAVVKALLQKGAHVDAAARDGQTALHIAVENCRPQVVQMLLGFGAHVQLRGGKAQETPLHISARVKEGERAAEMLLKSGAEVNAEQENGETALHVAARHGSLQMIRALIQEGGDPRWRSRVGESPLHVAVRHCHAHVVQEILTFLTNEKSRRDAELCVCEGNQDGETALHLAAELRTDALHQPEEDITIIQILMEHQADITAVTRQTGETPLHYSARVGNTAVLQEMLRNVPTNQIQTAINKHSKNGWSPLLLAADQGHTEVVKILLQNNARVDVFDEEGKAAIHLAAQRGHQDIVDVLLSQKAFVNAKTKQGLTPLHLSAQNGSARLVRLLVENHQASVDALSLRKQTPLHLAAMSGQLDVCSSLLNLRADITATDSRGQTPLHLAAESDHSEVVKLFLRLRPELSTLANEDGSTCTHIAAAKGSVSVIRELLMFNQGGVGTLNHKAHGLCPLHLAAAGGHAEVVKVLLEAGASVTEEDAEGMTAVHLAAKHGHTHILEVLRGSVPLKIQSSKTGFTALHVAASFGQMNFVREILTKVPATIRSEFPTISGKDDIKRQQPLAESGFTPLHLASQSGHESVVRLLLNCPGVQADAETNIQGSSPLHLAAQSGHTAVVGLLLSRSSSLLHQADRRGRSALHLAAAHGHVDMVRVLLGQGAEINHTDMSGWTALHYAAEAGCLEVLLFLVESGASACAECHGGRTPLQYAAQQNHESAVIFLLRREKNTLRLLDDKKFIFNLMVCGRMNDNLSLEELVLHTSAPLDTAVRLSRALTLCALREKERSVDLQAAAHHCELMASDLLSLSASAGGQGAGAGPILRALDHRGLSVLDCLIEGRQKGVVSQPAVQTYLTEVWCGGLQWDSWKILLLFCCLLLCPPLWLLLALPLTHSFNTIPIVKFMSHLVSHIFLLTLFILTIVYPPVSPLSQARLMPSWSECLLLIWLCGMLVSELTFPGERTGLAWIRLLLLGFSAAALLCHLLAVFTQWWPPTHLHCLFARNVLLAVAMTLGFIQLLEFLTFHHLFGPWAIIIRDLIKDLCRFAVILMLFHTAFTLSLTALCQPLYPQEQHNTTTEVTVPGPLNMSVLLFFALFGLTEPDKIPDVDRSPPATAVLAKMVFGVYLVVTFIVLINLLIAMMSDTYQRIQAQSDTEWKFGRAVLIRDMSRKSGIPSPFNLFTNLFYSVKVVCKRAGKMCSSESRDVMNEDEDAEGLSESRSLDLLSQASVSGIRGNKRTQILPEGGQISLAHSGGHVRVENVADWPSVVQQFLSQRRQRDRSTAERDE
# Mucolipin-3 = molecular target: T7, Mucolipin-3 (Homo sapiens, UniProt Q8TDD5); test: Fluorescence counterscreen assay for […] agonists: dose response cell-based high-throughput screening assay to identify agonists of the transient receptor potential channel ML3 (TRPML3). [Related pubchem assays: 1424, 1448 ]; format: functional
# T7 sequence (Q8TDD5 whole entry): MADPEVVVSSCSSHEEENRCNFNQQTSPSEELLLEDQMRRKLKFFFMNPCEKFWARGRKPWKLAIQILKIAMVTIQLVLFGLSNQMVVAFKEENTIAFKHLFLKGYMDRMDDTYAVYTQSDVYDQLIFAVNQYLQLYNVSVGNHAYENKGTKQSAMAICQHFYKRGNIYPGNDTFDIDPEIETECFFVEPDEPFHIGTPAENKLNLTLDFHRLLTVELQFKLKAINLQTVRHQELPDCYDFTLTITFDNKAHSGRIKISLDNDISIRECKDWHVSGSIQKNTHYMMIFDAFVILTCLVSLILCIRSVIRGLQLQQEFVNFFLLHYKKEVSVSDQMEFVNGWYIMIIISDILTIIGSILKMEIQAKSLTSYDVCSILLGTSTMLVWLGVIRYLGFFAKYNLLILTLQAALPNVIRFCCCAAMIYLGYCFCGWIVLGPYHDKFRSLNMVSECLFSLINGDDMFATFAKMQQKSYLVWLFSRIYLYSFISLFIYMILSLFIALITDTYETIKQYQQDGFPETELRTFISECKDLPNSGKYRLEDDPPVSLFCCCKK
# CAAX prenyl protease 2 [10] = molecular target: T8, CAAX prenyl protease 2 (Saccharomyces cerevisiae S288c, UniProt Q03530); format: biochemical
# T8 sequence (Q03530 whole entry): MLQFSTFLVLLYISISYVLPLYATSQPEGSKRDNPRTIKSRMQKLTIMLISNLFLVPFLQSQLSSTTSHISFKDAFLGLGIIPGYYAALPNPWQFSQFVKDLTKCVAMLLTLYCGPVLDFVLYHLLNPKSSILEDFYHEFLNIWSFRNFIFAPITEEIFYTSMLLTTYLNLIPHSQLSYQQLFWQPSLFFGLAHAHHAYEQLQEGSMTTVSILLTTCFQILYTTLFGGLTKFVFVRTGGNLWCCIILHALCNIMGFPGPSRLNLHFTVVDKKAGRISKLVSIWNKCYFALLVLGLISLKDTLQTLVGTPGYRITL
# [11] = Luminescence Cell-Based Dose Retest to Confirm Inhibitors of Cancer Stem Cells. [Related pubchem assays (depositor defined):AID2717, AID2721]; format: functional; settings: Homo sapiens
# Trypsin = Trypsin (Sus scrofa, UniProt P00761); test: porcine trypsin inhibitors, dose response, selectivity assay for Rce1 protease inhibitor project, biochemical, quenched peptide fluorescence, cherry-pick (AID 488789)
# Chain of Trypsin (P00761 whole entry): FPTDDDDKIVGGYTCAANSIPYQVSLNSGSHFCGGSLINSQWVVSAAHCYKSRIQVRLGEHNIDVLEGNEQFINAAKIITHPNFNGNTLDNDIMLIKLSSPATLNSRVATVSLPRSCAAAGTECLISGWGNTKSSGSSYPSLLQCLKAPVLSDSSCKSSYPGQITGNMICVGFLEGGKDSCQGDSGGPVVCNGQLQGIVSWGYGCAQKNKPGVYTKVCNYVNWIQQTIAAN
# [12] = molecular target: T9, Heat shock factor protein 1 (Mus musculus, UniProt P38532); test: inhibition of MG132-induced HSE-luciferase signal, confirmation, cell-based, NIH3T3, luminescence, dose retest (AID 2382); format: functional;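 further: NIH3T3 fibroblasts with HSF1-driven luciferase reporter stressed by proteasome inhibitor MG132; luminescence from HSF1-driven luciferase expression after 8 hours of MG132 stress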
# T9 sequence (P38532 whole entry): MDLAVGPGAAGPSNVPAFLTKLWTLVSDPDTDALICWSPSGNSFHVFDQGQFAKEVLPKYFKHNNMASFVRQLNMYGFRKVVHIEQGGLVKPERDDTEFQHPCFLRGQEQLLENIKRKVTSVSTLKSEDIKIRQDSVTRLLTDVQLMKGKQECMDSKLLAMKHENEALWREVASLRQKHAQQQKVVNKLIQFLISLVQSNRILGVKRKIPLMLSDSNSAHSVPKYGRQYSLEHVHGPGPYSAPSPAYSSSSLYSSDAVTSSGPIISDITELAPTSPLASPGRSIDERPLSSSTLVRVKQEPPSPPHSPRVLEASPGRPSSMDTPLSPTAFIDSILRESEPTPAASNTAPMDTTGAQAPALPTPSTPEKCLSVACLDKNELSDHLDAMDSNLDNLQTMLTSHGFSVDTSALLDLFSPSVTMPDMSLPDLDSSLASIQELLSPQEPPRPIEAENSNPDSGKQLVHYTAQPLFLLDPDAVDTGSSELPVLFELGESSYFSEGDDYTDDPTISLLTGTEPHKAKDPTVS
# HEK293 [13] = test: cells; format: functional, cell-based; settings: Homo sapiens
# HEK293 [14] = test: NOD1 signaling inhibitors, primary screen, cell-based, luminescence, uHTS (AID 1578); format: functional; settings: Homo sapiens
# HEK293 [15] = test: cells; format: functional, cell-based; settings: Homo sapiens; remark: listed apart in the source
# HEK293 [16] = test: NOD2 signaling inhibitors in MDP-stimulated cells, cell-based, uHTS, luminescence (AID 2001); format: functional; settings: Homo sapiens
# [17] = molecular target: Nucleotide-binding oligomerization domain-containing protein 2 (Homo sapiens, UniProt Q9HC29); test: NOD2 signaling inhibitors, cell-based, luminescence, uHTS, HEK293 (AID 1566); format: functional
# Chain of Beta-galactosidase (Q8VNN2 whole entry): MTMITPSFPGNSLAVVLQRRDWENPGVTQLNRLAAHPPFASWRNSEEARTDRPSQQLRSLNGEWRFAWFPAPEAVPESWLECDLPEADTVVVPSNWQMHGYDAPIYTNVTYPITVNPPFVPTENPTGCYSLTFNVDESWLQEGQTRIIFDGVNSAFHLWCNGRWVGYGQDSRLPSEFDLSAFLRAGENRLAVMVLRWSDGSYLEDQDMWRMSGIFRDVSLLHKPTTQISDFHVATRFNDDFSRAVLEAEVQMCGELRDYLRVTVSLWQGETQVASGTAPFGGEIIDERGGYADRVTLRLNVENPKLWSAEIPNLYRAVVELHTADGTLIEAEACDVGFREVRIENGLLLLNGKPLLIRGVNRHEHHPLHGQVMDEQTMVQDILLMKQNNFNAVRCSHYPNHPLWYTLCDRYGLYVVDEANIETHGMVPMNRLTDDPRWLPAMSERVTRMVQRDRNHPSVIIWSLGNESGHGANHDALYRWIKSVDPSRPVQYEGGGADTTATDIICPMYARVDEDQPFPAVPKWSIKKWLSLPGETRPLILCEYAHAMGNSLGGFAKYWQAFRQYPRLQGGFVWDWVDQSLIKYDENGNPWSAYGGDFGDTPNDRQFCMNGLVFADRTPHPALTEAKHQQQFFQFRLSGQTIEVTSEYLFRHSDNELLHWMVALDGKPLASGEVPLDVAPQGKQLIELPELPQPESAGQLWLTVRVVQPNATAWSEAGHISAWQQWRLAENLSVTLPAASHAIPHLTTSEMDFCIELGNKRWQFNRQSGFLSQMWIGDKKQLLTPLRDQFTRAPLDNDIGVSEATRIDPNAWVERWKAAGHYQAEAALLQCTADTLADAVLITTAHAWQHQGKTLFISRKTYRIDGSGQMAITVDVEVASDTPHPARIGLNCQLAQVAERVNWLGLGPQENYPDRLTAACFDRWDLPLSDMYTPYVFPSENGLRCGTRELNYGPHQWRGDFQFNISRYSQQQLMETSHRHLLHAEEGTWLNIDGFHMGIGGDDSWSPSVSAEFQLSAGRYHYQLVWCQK
smiles,measurement,setting,value
CNS(=O)(=O)c1cccc(C(=O)OCC(=O)c2cc3ccccc3o2)c1,EC50,Beta-galactosidase,> 40 µM (inactive)
same,IC50,[1],15.5 µM (active)
CCOC(=O)N1CCN(C(c2cccnc2)c2ccc3cccnc3c2O)CC1 (stereo not drawn),IC50,Estrogen receptor beta,10.6 µM (not active)
same,IC50,[2],> 66 µM (inactive)
same,IC50,[3],> 66 µM (inactive)
same,IC50,[4],> 64 µM (inactive)
same,IC50,[5],32 µM (active)
same,IC50,Nonstructural protein 1,14.6 µM (active)
COC(=O)c1cc(-c2ccc(Br)cc2)on1,AC50,[6],4.37 µM (active)
same,IC50,[7],> 100 µM (not active)
same,IC50,[8],> 100 µM (inactive)
COc1ccc(Br)cc1S(=O)(=O)n1cc(C(N)=O)c2ccccc21,IC50,[7],> 100 µM (not active)
same,IC50,[8],> 100 µM (inactive)
O=C(OCc1cc(=O)n2c(n1)sc1ccccc12)c1ccc(O)cc1O,IC50,[4],50 µM (inactive)
COC(=O)Cn1c(CCC(=O)O)ccc1-c1ccccc1,AC50,CAAX prenyl protease 2 [9],32.7 µM (active)
O=[N+]([O-])c1ccc(Oc2ccc(S(=O)(=O)Nc3ccccc3)cc2)cc1,EC50,Ion channel NompC,> 29.9 µM (inactive)
same,EC50,Mucolipin-3,> 29.9 µM (not active)
S=C(NCCCc1ccccc1)Nc1ccccc1Cl,EC50,Ion channel NompC,> 29.9 µM (inactive)
same,EC50,Mucolipin-3,> 29.9 µM (not active)
CS(=O)(=O)Nc1ccccc1C(=O)Nc1cccc(Cl)c1,AC50,CAAX prenyl protease 2 [10],21.8 µM (active)
same,AC50,[11],45.2 µM (active)
same,AC50,Trypsin,6.73 µM (active)
CCOc1ccccc1-n1c(SCC(=O)Nc2ccccc2C(=O)O)nc2ccccc2c1=O,EC50,[12],4.46 µM (active)
same,IC50,HEK293 [13],> 20 µM (inactive)
same,EC50,HEK293 [14],> 20 µM (inactive)
same,IC50,HEK293 [15],> 20 µM (inactive)
same,IC50,HEK293 [16],> 20 µM (inactive)
same,EC50,[17],> 20 µM (inactive)
